Results published in patent US12089542B2, “Subsurface drip irrigation (SDI) lines enhanced with essential oils” (Metzerplas Cooperative Agricultural Organization Ltd., priority 2020, dated 2024).

Assays:
[1] = test system: mash bean seeds; assay: Inhibition of root penetration in subsurface pipes by Thymol-active based film (5%), lab planters; format: in vivo
Excerpt: Holes were drilled at the bottom for water drainage. PE pipe was specially manufactured by METZERPLAS (Israel), with a coating that prevents diffusion of materials through the PE matrix. Pipe diameter 16 mm with a wall thickness of 0.9 mm. A VARDIT 16-type adjusted dripper was selected, with a flow rate of 1.2 liters/hour for each dripper spaced 20 cm apart across the pipes, which were placed 5 cm from the planter base. An ARC1-based active film (Cloisite 15 3% wt and Thymol 5%) was inserted to one pipe [FIG. 2] and its activity was compared with another pipe with no active agent, used as a negative control.
The planting substrate was Perlite mixed with Hydroton, and mash bean seeds were sown after surface-sterilization with 10% […], for 20 min, to avoid possible inhibition caused by toxins from fungi or bacteria. Seeds were then rinsed with an abundance of distilled water 20 g of seeds were sown 7 cm deep in each flowerbox.
A high ratio of seeds:volume was intentionally used to increase the chance of root intrusion.
Irrigation regimen was set at four times a day for ten minutes. The experiment was conducted in a lab, with light supplied 24 hours a day, and room temperature±25° C. After twenty days, the drippers were opened to examine whether the Thymol was able to function as an anti-root (AR) agent and protect the SDI pipe from root intrusion.

[2] = test system: Sorghum; assay: Greenhouse experiment using Sorghum and 5% Thymol, root clogging of SDI drippers; format: in vivo; settings: for % Clogged drippers / Clogged drippers / Clean drippers: 2.5 months greenhouse; for roots accumulated on top of the pipe in the area of the drippers' holes: FIG. 7; for Clogged drippers / Clean drippers: number of drippers; for Clogged drippers: ARC1 film in pipe or Treflan pipe
Method: In order to confirm the results of Example 1 in a more agricultural settind and in a different pant variety, Sorghum seeds were grown in a TROPICO-type greenhouse (TOP Company), at Kibbutz Metzer (Israel) during the summer season, for 2.5 months.
Individual PP (polypropylene) cases were built for seed beds, with the dimensions of 40 cm height, 20 cm width, and 5 meters length. ARC1-based active films were inserted into PE SDI pipes as in Example 1, and activity of thymol as a root inhibitor was compared to that of TREFLAN chemical herbicide (positive control), as well as to herbicide free pipe used as a negative control.
The pipes were placed 15 cm above the bed's bottom, mimicking a buried drip irrigation situation at a realistic ‘field depth’ for the SDI system. Holes were drilled at the bed's edges to allow easy access to the initial and the last pipe and to enable simple irrigation and fertilization control.
The seed beds were filled with ‘Ram 8’-type (Tuff Merom Golan), a professional planting substrate, 80% coarse peat/20% coconut composition.
“Bulldozer”-type sorghum seeds, supplied by CTS Company, were sown. Sorghum is categorized as a classical field-growth plant and characterized by a robust and aggressive root system with secondary growth ability after ‘green’ harvesting without inflorescence.
The sowing process corresponded to field sowing. Eight seeds per meter were sown at 2.5 cm deep, with 12.5 cm sowing intervals.
Irrigation regime was determined differentially, taking into consideration climate data and irrigation type. During the first week from sowing, the irrigation carried out using sprinklers without fertilization. After sprouting and germination, the irrigation was performed through underground drip irrigation only, accompanied by proportional fertilization, “fertilizer-all”-type 17-10-27, with trace elements. The level of fertilizer in irrigation water was about 30 ppm nitrogen. In contrast to example 1, irrigation and fertilization regimes performed were minimal to create ‘starvation’ and cause the roots to aggressively migrate towards the drippers' holes in search of water and fertilizer.

[3] = test system: cucumber seeds; assay: Bioassay of Thymol activity on plant health and development, cucumber; format: in vivo
Method: (§1) In order to determine the suitability of Thymol as an anti-root (AR) agent in a variety of agricultural settings, Thymol activity was tested on different seed types.
(§2) The experiment was conducted for two months during the spring with an ambient temperature of ±30° C. Plastic boxes of 30 cm length, 20 cm width, and 15 cm height were filled with German Kalsmann peat, coconut fiber, ventilation materials, and slow-release fertilizers as planting substrate.
(§3) Cucumber, tomato, beetroot, and sweet corn seeds were each sown in two boxes (8 boxes in total); one box of each seed type was used as a negative control and in the other box (experimental) an ARC2-based active film (Cloisite 15A 10 wt % nanoclay; 7% Thymol) was placed adjacent to the box wall to assess Thymol activity [FIG. 12]. The film folded in half, corresponding to the length and width dimensions of the box.
(§4) For each seed type, both boxes were placed outdoors according to the sun intensity the plant requires. Each seed type was given an appropriate amount of water evenly, using a can.

[4] = test system: beetroot seeds; assay: Bioassay of Thymol activity on plant health and development, beetroot; format: in vivo; settings: ARC2 film (7% Thymol) adjacent to box wall
Method: as §1, §2, §3, §4

[5] = Quantitative analysis of Thymol concentration remaining in the film (extraction, Gibbs reagent, UV-visible); format: physicochemical
Method: The amount of Thymol remaining in the films immediately after processing and at the end of each experiment was determined by UV-visible 1650PC spectrophotometer (Shimadzu), through extraction. The procedure is suitable for different phenolic EOs and is based on Gibbs reagent (2,6-dichlorobenzoquinone 4-chloroimine).
Briefly, different Thymol-active films were cut to small pieces, weighed, and extracted by refluxing with 2-propanol at a ratio of 500 mg film/25 ml propanol, for 2 hours. To 100 ml volumetric flasks containing 10 ml of a standard Buffer solution of Boric Acid+Potassium Chloride, 1 ml of the extraction solution, 4 mL of 2-propanol, and 1 ml of Gibbs reagent solution was added. The solution was allowed to stand for 15 min to enable the reaction to occur fully. The resulting violet water-soluble dye has a maximum absorption at 590 nm wavelength. Thymol concentration retained in the film, as a proportion of the nominal concentration, was calculated from a calibration curve. Two replicates were measured for each standard.

[6] = test system: helianthus seeds; assay: Helianthus seeds in planters with 7% Thymol (ARC2 film in pipe); format: in vivo
Method: In order to evaluate the effect of increasing the amount of Thymol, an additional experiment was conducted using ARC2 polymer (Cloisite 15A 10 wt % nanoclay; 7% Thymol). The experiment was conducted on helianthus seeds during the summer season, temperature above 30° C., for two months.
Planter dimensions were 110 cm length, 10 cm width, and 15 cm height. The pipes were placed 5 cm from the planter base, where holes were drilled for drainage.
One planter contained negative control pipe, while ARC2-based active film (experimental) was inserted to pipe in experimental planters as in examples 1 and 2.
Potting soil for plant growth was a mixture of German Kalsmann peat, coconut fiber, ventilation materials, and slow-release fertilizers, mixed with Perlite.
Thirty seeds were sown in two columns at 1 cm depth and 7 cm intervals.
Irrigation cycle was set twice daily for three minutes.
As in previous examples, the number of seeds sown relative to the planter size was large and irrigation regime was minimal to increase the root-intrusion tendency.

[7] = test system: root growth; assay: Cumulative data from examples 1 through 4: Thymol concentration and root growth; format: in vivo; settings: low concentrations; at higher concentrations anti-root activity
[8] = test system: tomato seeds; assay: Bioassay of Thymol activity on plant health and development, tomato; format: in vivo; settings: ARC2 film (7% Thymol) adjacent to box wall
Method: as §1, §2, §3, §4

[9] = test system: mash bean seeds; assay: Combination of active ingredients: mash bean root development in open jars with ARC2 films; format: in vivo; settings: 7% in ARC2 film
Method: In order to evaluate the efficacy of Thymol relative to another EO, and to see if combination could result in synergistic activity, an additional experiment was conducted using ARC2 polymer (Cloisite 15A 10 wt % nanoclay) with mash bean seeds in open jars. Cotton wool was placed in the jar as a substrate in the center of which the seeds were sown. Three types of EOs were incorporated into the ARC2 polymer films (7% Thymol, 7% pelargonic acid, and 3.5% Thymol/3.5% pelargonic acid) with a dimension of 1 cm width, 3 cm length, and 3 mm thickness were tested and compared to a reference sample (without EO). Each film was placed adjacent to the jar wall. Seeds were watered once a day for 14 weeks.

[10] = test system: sweet corn seeds; assay: Bioassay of Thymol activity on plant health and development, sweet corn; format: in vivo; settings: ARC2 film (7% Thymol) adjacent to box wall
Method: as §1, §2, §3, §4

[11] = beds opened at end of experiment

Cc1ccc(C(C)C)c(O)c1 [Thymol]
root penetration of drippers ([1]; drippers opened after twenty days, ARC1 film, Thymol 5%, in pipe): remained free of roots | number of germinated seeds compared with reference planter ([1]; first four days, ARC1-based active film (Cloisite 15 3% wt, Thymol 5%) inserted in pipe): greater | growth rate of roots and seedlings compared with reference planter ([1]; up to two weeks, ARC1 film, Thymol 5%, in pipe): faster | % Clogged drippers ([2]; listed as Thymol 1): 0% | % Clogged drippers ([2]; listed as Thymol 2): 4.76% | roots accumulated on top of the pipe in the area of the drippers' holes [2, 11]: lower than that obtained for the negative control | effect on roots development / harm to the crop under cultivation ([2]; in vivo): less harmful to the crop under cultivation than Treflan | efficacy in deterring roots from dripper openings relative to Treflan ([2]; in vivo): roughly as effective as Treflan | Clogged drippers [2]: one | Clogged drippers ([2]; listed as Thymol 1): 0 | Clogged drippers ([2]; listed as Thymol 2): 1 | Clean drippers ([2]; listed as Thymol 1): 15 | Clean drippers ([2]; listed as Thymol 2): 20 | germination rate compared with control box ([3]; ARC2 film (7% Thymol) adjacent to box wall): faster | number of germinated seeds compared with control box ([3]; FIG. 13): greater | seedlings' growth rate compared with control box ([3]; FIG. 13, after 43 days): continued to be faster | time until 6 seeds germinated ([3]; FIG. 13, control box 17 days): 11 days | germination rate compared with control box [4]: faster | amount of Thymol remaining in the film ([5]; after 2 months in soil, film in pipe, welded outside or at a distance): around 5 % of the amount nominally incorporated in the film prior to processing | Thymol concentration in the film below which inhibitory activity decreases ([5]; initial concentration at the beginning of the manufacturing process): about 9 % of the initial concentration | Thymol concentration remaining in the film, sorghum experiment versus mash bean experiment ([5]; two and a half months (sorghum) vs two months (mash bean)): slightly higher | germination rate compared with negative control planter ([6]; ARC2 film (Cloisite 15A 10 wt %, 7% Thymol) in pipe): faster | number of helianthus flowers ([6]; after 55 days, control planter 19): 24 | drippers penetrated by roots ([6]; out of five drippers, end of experiment (two months), control three out of five): two | seedling growth rate compared with control planter ([6]; until plants reached maximum height): remained faster | concentration at which Thymol can stimulate root growth [7]: < 0.4 wt % | germination rate compared with control box [8]: faster | root inhibitory effect ([9]; after 3 weeks, FIG. 19): best root inhibitory effect | germination rate compared with control box [10]: faster

CCCN(CCC)c1c([N+](=O)[O-])cc(C(F)(F)F)cc1[N+](=O)[O-] [Treflan, trifluralin, reference compound]
% Clogged drippers [2]: 0% | soil moisture in proximity to drippers ([2]; beds opened at end of experiment, FIG. 6, compared with negative control): higher degree of moisture | roots accumulated on top of the pipe in the area of the drippers' holes [2, 11]: no root concentration areas are observed | root state of drippers ([2]; end of experiment): root-clean | Clean drippers [2]: 20 | Clogged drippers [2]: 0 | effect on roots development / harm to the crop under cultivation ([2]; subjective evidence): more aggressive and detrimental effect on roots development

CCCCCCCCC(=O)O [Pelargonic acid]
effect on root growth ([9]; after two weeks, FIG. 18): inhibitory effect on root growth compared to the reference sample, but the effect was less
